Calls of active or inactive are those of the source. The rule behind the calls is not given here.

Series [1] concerns Rattus norvegicus. Put plainly: In vivo inhibition of COX-2 activity in Complete Freund's adjuvant-induced arthritic albino Wistar rat serum assessed as decrease in peroxidase activity measured as TMPD oxidation rate at 10 mg/kg administered via gavage daily started from day 7 and continued till day 21 after CFA injection by colorimetric analysis. The class given is functional, organism-based. Further details: dose 10 mg/kg.

Series [2] in a line: Cytotoxicity against human SW982 cells after 24 hrs by MTT assay. The conditions noted are these: read-out: LD50. The series is classed as cell-based. (In general: Tetrazolium dyes change colour on reduction, which living cells bring about.)
Series [3] relates to SW982. Briefly: Inhibition of IL-1 beta-induced LOX activity in human SW982 cells assessed as enzyme activity at LD50 treated for 24 hrs prior to incubation with IL-1 beta for 6 hrs (reference value: 100.0%). The class given is cell-based. The arrangement: scale not given: the % may be the effect or the level left.
The target of series [4] is T1, Prostaglandin G/H synthase 2 (Homo sapiens) (UniProt P35354).
T1 sequence (whole entry): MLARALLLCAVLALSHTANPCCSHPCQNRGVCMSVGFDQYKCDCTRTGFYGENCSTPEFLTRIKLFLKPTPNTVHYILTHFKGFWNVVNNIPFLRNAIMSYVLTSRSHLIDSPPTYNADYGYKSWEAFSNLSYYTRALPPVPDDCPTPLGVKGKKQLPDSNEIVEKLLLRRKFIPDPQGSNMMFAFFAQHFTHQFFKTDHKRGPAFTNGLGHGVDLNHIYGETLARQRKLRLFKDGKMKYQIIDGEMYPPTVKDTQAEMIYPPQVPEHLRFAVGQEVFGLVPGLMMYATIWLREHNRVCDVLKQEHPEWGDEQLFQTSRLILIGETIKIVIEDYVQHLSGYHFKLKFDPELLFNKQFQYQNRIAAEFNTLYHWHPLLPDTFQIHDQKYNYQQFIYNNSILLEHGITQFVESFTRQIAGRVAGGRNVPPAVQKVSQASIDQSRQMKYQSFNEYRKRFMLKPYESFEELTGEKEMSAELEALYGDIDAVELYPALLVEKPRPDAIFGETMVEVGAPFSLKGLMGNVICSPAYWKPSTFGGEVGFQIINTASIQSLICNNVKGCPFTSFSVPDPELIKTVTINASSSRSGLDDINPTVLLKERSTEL
Put plainly: Inhibition of IL-1 beta-induced COX-2 activity in human SW982 cells assessed as enzyme activity at LD50 treated for 24 hrs prior to incubation with IL-1 beta for 6 hrs (reference value: 100.0%). The class given is cell-based. The arrangement: scale not given: the % may be the effect or the level left.

In series [5] the test system is Rattus norvegicus. Put plainly: Reduction in neutrophil infiltration in Complete Freund's adjuvant-induced arthritic albino Wistar rat ankle joint at 10 mg/kg administered via gavage daily started from day 7 and continued till day 21 after CFA injection by hematoxylin-eosin staining based microscopic analysis. The class given is functional, organism-based. Further details: dose 10 mg/kg.

For the compound `COC(=O)[C@]1(C)[C@@H]2CC[C@]3(C)[C@H](C(=O)C=C4[C@@H]5[C@@H](C)[C@H](C)CC[C@]5(C)CC[C@]43C)[C@@]2(C)CC[C@H]1OC(=O)Cc1c(C)n(C(=O)c2ccc(Cl)cc2)c2ccc(OC)cc12`, the inhibition result in series [1] was “Active”.

Take `COC(=O)[C@]1(C)[C@@H]2CC[C@]3(C)[C@H](C(=O)C=C4[C@@H]5[C@@H](C)[C@H](C)CC[C@]5(C)CC[C@]43C)[C@@]2(C)CC[C@H]1OC(=O)Cc1ccccc1Nc1c(Cl)cccc1Cl`: the inhibition result in series [1] was “Active”.

With `COC(=O)[C@]1(C)[C@@H]2CC[C@]3(C)[C@H](CC=C4[C@@H]5[C@@H](C)[C@H](C)CC[C@]5(C)CC[C@]43C)[C@@]2(C)CC[C@H]1OC(=O)Cc1c(C)n(C(=O)c2ccc(Cl)cc2)c2ccc(OC)cc12`, in series [1], the inhibition result is “Active”.

In the case of `COC(=O)[C@]1(C)[C@@H]2CC[C@]3(C)[C@H](CC=C4[C@@H]5[C@@H](C)[C@H](C)CC[C@]5(C)CC[C@]43C)[C@@]2(C)CC[C@H]1OC(=O)Cc1ccccc1Nc1c(Cl)cccc1Cl`, the inhibition result in series [1] was “Active”.

As to `COC(=O)[C@]1(C)[C@@H]2CC[C@]3(C)[C@H](CC=C4[C@@H]5[C@@H](C)[C@H](C)CC[C@]5(C)CC[C@]43C)[C@@]2(C)CC[C@H]1OC(=O)C(C)c1ccc(CC(C)C)cc1` (mixture of isomers), the CC50 at 24 h in series [2] is 62.6 µM. Moreover, the Activity in series [3] was found to be 65.8%; in series [4], 30.2%. The inhibition entry in series [1] and in series [5] was “Active” in each case.

As to `COC(=O)[C@]1(C)[C@@H]2CC[C@]3(C)[C@H](C(=O)C=C4[C@@H]5[C@@H](C)[C@H](C)CC[C@]5(C)CC[C@]43C)[C@@]2(C)CC[C@H]1OC(=O)C(C)c1ccc(CC(C)C)cc1` (mixture of isomers), in series [2], the CC50 at 24 h came to 40.6 µM. The Activity in series [3] is 60.2%; in series [4] it was 27.7%. For the same compound, the inhibition result in series [1] and in series [5] was “Active” each time.

As to `COC(=O)[C@]1(C)[C@@H]2CC[C@]3(C)[C@H](C(=O)C=C4[C@@H]5[C@@H](C)[C@H](C)CC[C@]5(C)CC[C@]43C)[C@@]2(C)CC[C@H]1OC(=O)C(C)c1ccc2cc(OC)ccc2c1` (mixture of isomers), in series [1], the inhibition result is “Active”.

Consider `COC(=O)[C@]1(C)[C@@H]2CC[C@]3(C)[C@H](CC=C4[C@@H]5[C@@H](C)[C@H](C)CC[C@]5(C)CC[C@]43C)[C@@]2(C)CC[C@H]1OC(=O)C(C)c1ccc2cc(OC)ccc2c1` (mixture of isomers), for which, in series [1], the inhibition result was “Active”.

For the compound `C[C@H]1[C@H](C)CC[C@]2(C)CC[C@]3(C)C(=CC(=O)[C@@H]4[C@@]5(C)CC[C@@H](O)[C@](C)(C(=O)O)[C@@H]5CC[C@]43C)[C@H]12` [11-KETO BOSWELLIC ACID], the CC50 at 24 h in series [2] amounted to 82 µM. Besides, the Activity in series [3] turned out to be 72.7%; in series [4] it was 27.4%. Besides, the inhibition result in series [1] and in series [5] was “Active” in each case.

For `C[C@H]1[C@H](C)CC[C@]2(C)CC[C@]3(C)C(=CC[C@@H]4[C@@]5(C)CC[C@@H](O)[C@](C)(C(=O)O)[C@@H]5CC[C@]43C)[C@H]12` [BOSWELLIC ACID], in series [2], the CC50 at 24 h is 70.2 µM. The Activity in series [3] was 44%; in series [4], 50.8%.

Take `CC(C)Cc1ccc(C(C)C(=O)O)cc1` (configuration not stated) [IBUPROFEN]: the CC50 at 24 h in series [2] was 93 µM. Moreover, the inhibition entry in series [1] and in series [5] was “Active” each time.
